Article PMC9518609, “Design and synthesis of new trimethoxylphenyl-linked combretastatin analogues loaded on diamond nanoparticles as a panel for ameliorated solubility and antiproliferative activity” (Journal of Enzyme Inhibition and Medicinal Chemistry, 2022)

Tests used:
Assay type in all cases: cell-based
Bcl-2 = assay: ELISA measurement of Bcl-2 level in MDA-MB-231 cells; conditions: MDA-MB-231, at IC50, 24 h
From the text: (§1) p53, Bax, and Bcl-2 are key regulators of the apoptosis process to keep the balance between viable and dead normal cells. Deregulation of these proteins is a common feature responsible for uncontrolled cancer cell growth. In this test, the protein expression of apoptotic regulators was examined using ELISA analysis. […]
(§2) p53, Bax, and Bcl2 enzyme activities in MDA-MB-231 cells were investigated in the presence of compounds 6 and 12 at their IC50 concentration (µM). The levels of the tumour suppressor gene p53, apoptotic markers Bax as well as the anti-apoptotic marker Bcl-2 were assessed using the p53 ELISA kit, Human Bax ELISA kit, and Bcl-2 Elisa kit. The procedure of the used kits was done according to the manufacturer's instructions and was conducted as reported earlier. […]
(§3) 4.3.4.2. Effect on p53, Bax and Bcl-2 p53, Bax and Bcl2 enzyme activities in MDA-MB-231 cells were detected in the presence of compounds 6 and 12 at their IC50 concentration (µM). The levels of the tumor suppressor gene p53, apoptotic markers Bax as well as the anti-apoptotic marker Bcl-2 were assessed using p53 ELISA kit, Human Bax ELISA kit and Bcl-2 Elisa kit. The procedure of the used kits was done according to the manufacturer's instructions. […] The samples were measured at 450 nm in ROBONEK P2000 ELISA reader. […]

MDA-MB-231 cells [1] = assay: Cell cycle analysis by DNA flow cytometry; conditions: MDA-MB-231, at IC50, 24 h; for %Pre-G1 (pre-G1 apoptosis): untreated control 1.99%; for %DIP G2/M (cells in G2/M phase): untreated control 5.64%
Experimental: Targeting the cell cycle division at distinct checkpoints of cancer cells has been identified as a promising strategy for cancer chemotherapy.
Cell cycle analysis in MDA-MB-231 cells was investigated using a fluorescent Annexin V-FITC/PI detection kit (BioVision EZCell™ Cell Cycle Analysis Kit Catalog #K920) by flow cytometry assay. All experimental steps were performed as reported earlier.
4.3.3. Cell cycle analysis of compound 6 and 12
Cell cycle analysis in MDA-MB-231 cells was investigated using fluorescent Annexin V-FITC/ PI detection kit (BioVision EZCellTM Cell Cycle Analysis Kit Catalog #K920) by flow cytometry assay. MDA-MB-231 cells at a density of 2 × 10^5 per well were harvested and washed twice in PBS. After that, the cells were incubated at 37 °C and 5% CO2. The […]
washed twice in PBS, fixed with 70% ethanol, rinsed again with PBS. Afterward, medium was stained with DNA fluorochrome PI for 15 min at 37 °C. […]
(§4) All experiments were done in triplicates. […]

MDA-MB-231 = assay: MTT cytotoxic activity against breast MDA-MB-231 cancer cell line; conditions: MTT assay, 24 h treatment
From the text: All the synthesised compounds were screened for their cytotoxic activity against breast MDA-MB-231 cancer cell line and compounds 6 and 12 against breast MCF-10A cell line taking CA-4 as a positive control for the analysis. The in vitro cytotoxicity results of the prepared compounds were systematised in Table 1. […] Structurally, the prepared molecules contain three structural variations; including rotatable hydrazide derivatives, the core exchange with imidazolone ring, and the ring expansion with triazinone motif. […] It is noticed that directly attached benzene ring to triazinone scaffold (compound 6) or bioisosteric group (thiazolyl ester) as in compound 12, may contribute to the astonishing cytotoxicity against breast MDA-MB-231 cancer cells.
To measure the cytotoxic activity of the synthesised derivatives 2a–13e in breast cancer (MDA-MB-231) cell line. MTT assay method was applied to assess cell viability assay. All experimental steps were conducted as reported earlier.
Part I: Biological Studies
4.3. Biological evaluation
4.3.1. Cytotoxic activity evaluation
The cytotoxic actvity of the synthesized derivatives 2a-13e was measured in MDA-MB-231 breast cancer cell line and derivatives 6 and 12 in MCF-10A […].
Cell viability assay was assessed using MTT assay method. Cells at density of 1 x 104 were seeded in a 96-well plate at 37 °C for 24 h under 5% CO2. After incubation, the cells were treated with different concentrations of the test schiff bases 2a-13e and incubated for 24 h, then 20 µl of MTT solution at 5 mg/mL was applied and incubated for 4 h at 37 °C.
Dimethyl sulphoxide (DMSO) in volume of 100 µl was added to each well to dissolve the purple formazan that had formed. The color intensity of the formazan product, which represents the growth condition of the cells, is quantified by using an ELISA plate reader (EXL 800, USA) at 570 nm absorbance. The experimental conditions were carried out with at least three replicates, and the experiments were repeated at least three times. […]

p53 = assay: ELISA measurement of p53 level in MDA-MB-231 cells; conditions: MDA-MB-231, at IC50, 24 h
From the text: as §1, §2, §3

MDA-MB-231 cells [2] = assay: Annexin V-FITC/PI apoptosis staining assay; conditions: MDA-MB-231, at IC50, 24 h; for percentage of late apoptotic cells (upper right quadrant): untreated control 0.13%
Experimental: The effect of compounds 6 and 12 on apoptosis percentage rate was carried out using annexin V-FITC/Propidium iodide (PI) biparametric cytofluorimetric double staining analysis in MDA-MB-231 cells.
Apoptosis in MDA-MB-231 cells was investigated using a fluorescent Annexin V-FITC/PI detection kit (BioVision Annexin V-FITC Apoptosis Detection Kit, Catalog #: K101) by flow cytometry assay. All experimental steps were conducted as reported earlier. […]
4.3.4.1. Apoptosis assay for compounds 6 and 12
Apoptosis in MDA-MB-231 cells was investigated using fluorescent Annexin V-FITC/ PI detection kit (BioVision Annexin V-FITC Apoptosis Detection Kit, Catalog #: K101) by flow cytometry assay. MDA-MB-231 cells at a density of 2 × 10^5 per well were treated […]
stained with Annexin V-FITC/ PI dye for 15 min in the dark at 37 °C. […]
as §4

| Compound | Bcl-2 level decrease compared with no treatment control (Bcl-2) [fold] | %Pre-G1 (pre-G1 apoptosis) (MDA-MB-231 cells [1]) [%] | %DIP G2/M (cells in G2/M phase) (MDA-MB-231 cells [1]) [%] | IC50 (MDA-MB-231; Homo sapiens, MDA-MB-231) [nM] | p53 level increase, fold change compared with no treatment control (p53) [fold] | increase of percentage of early apoptotic cells relative to no treatment control (MDA-MB-231 cells [2]) [fold] | increase of percentage of total apoptotic cells compared with no treatment control (MDA-MB-231 cells [2]) [fold] | percentage of late apoptotic cells (upper right quadrant) (MDA-MB-231 cells [2]) [%] | IC50 (MDA-MB-231) [nM] |
| --- | --- | --- | --- | --- | --- | --- | --- | --- | --- |
| COc1cc(C=C2N=C(c3cc(OC)c(OC)c(OC)c3)N(c3ccccc3)NC2=O)cc(OC)c1OC [Compound 6, 2-phenyl-5-(3,4,5-trimethoxybenzylidene)-3-(3,4,5-trimethoxyphenyl)-1,2-dihydro-1,2,4-triazin-6(5H)-one] | 6.49 | 43.50 | 35.09 | 1360 ± 100 | 11.96 | 6.80 | 21.86 | 23.28 | – |
| ethyl 2-(2-(6-oxo-5-(3,4,5-trimethoxybenzylidene)-3–(3,4,5-trimethoxyphenyl)-5,6-dihydro-1,2,4-triazin-2(1H)-yl)thiazol-4-yl)acetate [Compound 12] | 2.96 | 29.81 | 26.75 | – | 5.20 | 4.36 | 14.98 | 17.68 | 1710 ± 110 |
